Measurements from ChEMBL document CHEMBL2331154 (J Med Chem, 2013).
pKd: −log10 of the molar value. Active and inactive are the calls of the source. No cut-off for these calls is given here.

How the values were obtained:
[1] = biological target: T1, Heat shock protein HSP 90-alpha (Homo sapiens, UniProt P07900); assay: Binding affinity to recombinant Hsp90 alpha (unknown origin) by surface plasmon resonance; settings: for pKd: read-out: Kd
[2] = biological target: T1, Heat shock protein HSP 90-alpha; assay: Inhibition of Hsp90 alpha in human HeLa cells assessed as reduction in p-AKT level at 50 uM after 24 hrs by Western blot analysis; assay type: cell-based
[3] = biological target: T1, Heat shock protein HSP 90-alpha; assay: Inhibition of Hsp90 alpha (unknown origin) ATPase activity after 60 mins by fluorimetry
HeLa [4] = assay: Cytotoxicity against human HeLa cells assessed as cell viability up to 100 uM after 24 hrs by MTT assay; assay type: cell-based
HeLa [5] = assay: Increase in Hsp70 level in human HeLa cells at 50 uM after 24 hrs by Western blot analysis; assay type: functional, cell-based
[6] = biological target: T1, Heat shock protein HSP 90-alpha; assay: Inhibition of Hsp90 alpha (unknown origin) assessed as thermal-induced citrate synthase aggregation at 0.3 uM by fluorimetry relative to control
[7] = biological target: T1, Heat shock protein HSP 90-alpha; assay: Inhibition of Hsp90 alpha in human HeLa cells assessed as reduction in ERK1/ERK2 level at 50 uM after 24 hrs by Western blot analysis; assay type: cell-based
[8] = biological target: T1, Heat shock protein HSP 90-alpha; assay: Inhibition of Hsp90 alpha (unknown origin) assessed as thermal-induced citrate synthase aggregation at 4 fold molar excess by fluorimetry

pKd [1] | Structure (SMILES) | Kd [1] | also measured
– | O=C(/C=C/c1ccc(O)cc1)O[C@H]1[C@@H]2C=CO[C@@H](O[C@@H]3O[C@H](CO)[C@@H](O)[C@H](O)[C@H]3O)[C@@H]2[C@@](O)(CO)[C@@H]1O [STEREOSPERMOSIDE] | Not Active | –
– | CO[C@H]1C[C@@H]2[C@@H]3[C@@H](OC[C@]3(O)C[C@H]2OC(=O)c2ccc(O)cc2)O1 | Not Active | –
– | COc1cc(/C=C/C(=O)O[C@H]2[C@@H]3C=CO[C@@H](O[C@@H]4O[C@H](CO)[C@@H](O)[C@H](O)[C@H]4O)[C@@H]3[C@@]3(CO)O[C@@H]23)ccc1O | Not Active | –
– | COc1cc(/C=C/C(=O)O[C@@H]2C[C@@](O)(CO)[C@H]3[C@H](O[C@@H]4O[C@H](CO)[C@@H](O)[C@H](O)[C@H]4O)OC=C[C@H]32)ccc1O | Not Active | –
– | C=C[C@H]1[C@H](O[C@@H]2O[C@H](CO)[C@@H](O)[C@H](O)[C@H]2O)OC=C(C(=O)OC)[C@H]1CC=O [SECOLOGANIN] | Not Active | –
– | COc1cc(C(=O)O[C@H]2[C@@H]3C=CO[C@@H](O[C@@H]4O[C@H](CO)[C@@H](O)[C@H](O)[C@H]4O)[C@@H]3[C@@]3(CO)O[C@@H]23)ccc1O [PICROSIDE II] | Not Active | –
– | O[C@@H]1C[C@@]2(O)CO[C@H]3OCC[C@@H]1[C@H]32 | Not Active | –
7.80 | O=C(O[C@H]1[C@@H]2CCO[C@@H](O[C@@H]3O[C@H](CO)[C@@H](O)[C@H](O)[C@H]3O)[C@@H]2[C@@]2(CO)O[C@@H]12)c1ccc(O)cc1 | – | –
– | O=C(C=Cc1ccc(O)cc1)O[C@@H]1C[C@@](O)(CO)[C@H]2[C@H](O[C@@H]3O[C@H](CO)[C@@H](O)[C@H](O)[C@H]3O)OC=C[C@H]21 (mixture of isomers) | Not Active | –
6.86 | O=C(OC[C@H]1O[C@@H](O[C@@H]2OC=C[C@@H]3[C@H]2[C@](O)(CO)C[C@H]3OC(=O)c2ccc(O)cc2)[C@H](O)[C@@H](O)[C@@H]1O)c1ccc(O)cc1 | – | –
7.85 | O=C(O[C@H]1[C@@H]2C=CO[C@@H](O[C@@H]3O[C@H](CO)[C@@H](O)[C@H](O)[C@H]3O)[C@@H]2[C@@]2(CO)O[C@@H]12)[C@H]1[C@H](C(=O)O[C@H]2[C@@H]3C=CO[C@@H](O[C@@H]4O[C@H](CO)[C@@H](O)[C@H](O)[C@H]4O)[C@@H]3[C@@]3(CO)O[C@@H]23)[C@@H](c2ccc(O)cc2)[C@@H]1c1ccc(O)cc1 [ARGENTEOSIDE A] | – | inhibition [2]: Active; inhibition [3]: Dose-dependent effect; Activity (HeLa [4]): Non-toxic; Activity (HeLa [5]): inactive; inhibition [6]: Active; inhibition [7]: Active; inhibition [8]: Active
7.30 | O=C(O[C@H]1[C@@H]2C=CO[C@@H](O[C@@H]3O[C@H](CO)[C@@H](O)[C@H](O)[C@H]3O)[C@@H]2[C@@]2(CO)O[C@@H]12)[C@H]1[C@H](c2ccc(O)cc2)[C@H](C(=O)O[C@H]2[C@@H]3C=CO[C@@H](O[C@@H]4O[C@H](CO)[C@@H](O)[C@H](O)[C@H]4O)[C@@H]3[C@@]3(CO)O[C@@H]23)[C@H]1c1ccc(O)cc1 [ARGENTEOSIDE B] | – | inhibition [3]: Dose-dependent effect
– | C=C[C@H]1[C@H](O[C@@H]2O[C@H](CO)[C@@H](O)[C@H](O)[C@H]2O)OC=C2C(=O)OCC[C@H]21 [SWEROSIDE] | Not Active | –
– | O=C(O[C@@H]1C[C@@]2(O)CO[C@@H]3CC1C2[C@H](O[C@@H]1O[C@H](CO)[C@@H](O)[C@H](O)[C@H]1O)O3)c1ccc(O)cc1 | Not Active | –
– | O=C(O[C@@H]1C=C(CO)[C@@H]2[C@H](O[C@@H]3O[C@H](CO)[C@@H](O)[C@H](O)[C@H]3O)OC=C[C@@H]21)c1ccc(O)cc1 | Not Active | –
– | C[C@H]1[C@H]2[C@H](O[C@@H]3O[C@H](CO)[C@@H](O)[C@H](O)[C@H]3O)OC[C@](C)(O)[C@H]2C[C@@H]1O [ADENOSMOSIDE] | Not Active | –
5.23 | O=C(O[C@@H]1C[C@@]2(O)CO[C@H]3O[C@H](O)C[C@@H]1[C@H]32)c1ccc(O)cc1 [CATALPIN] | – | –
5.62 | O[C@H]1[C@@H]2CCO[C@@H]3OC[C@@](O)([C@@H]32)[C@@H]1O [REHMAGLUTIN A] | – | –
– | O=C(OC[C@H]1O[C@@H](O[C@@H]2C[C@@]3(O)CO[C@H]4OCC[C@@H]2[C@H]43)[C@H](O)[C@@H](O)[C@@H]1O)c1ccc(O)cc1 | Not Active | –
6.46 | O=C(/C=C/c1ccc(O)c(O)c1)O[C@@H]1C2C=CO[C@H](O[C@@H]3O[C@H](CO)[C@@H](O)[C@H](O)[C@H]3O)C2[C@]2(CO)O[C@H]12 (stereo partly specified) [VERMINOSIDE] | – | –
7.59 | O=C(/C=C/c1ccc(O)cc1)O[C@H]1[C@@H]2C=CO[C@@H](O[C@@H]3O[C@H](CO)[C@@H](O)[C@H](O)[C@H]3O)[C@@H]2[C@@]2(CO)O[C@@H]12 [SPECIOSIDE] | – | inhibition [3]: Dose-dependent effect
– | COc1ccc(C=CC(=O)O[C@@H]2C[C@@](O)(CO)[C@H]3[C@H](O[C@@H]4O[C@H](CO)[C@@H](O)[C@H](O)[C@H]4O)OC=C[C@H]32)cc1 (mixture of isomers) | Not Active | –
– | COc1ccc(C=CC(=O)O[C@@H]2C[C@@](O)(CO)[C@H]3[C@H](O[C@@H]4O[C@H](CO)[C@@H](O)[C@H](O)[C@H]4O)OC=C[C@H]32)cc1O (mixture of isomers) | Not Active | –
7.51 | O=C(O[C@@H]1C[C@@](O)(CO)[C@H]2[C@H](O[C@@H]3O[C@H](CO)[C@@H](O)[C@H](O)[C@H]3O)OC=C[C@H]21)c1ccc(O)cc1 | – | –
7.92 | O=C(O[C@H]1[C@@H]2C=CO[C@@H](O[C@@H]3O[C@H](CO)[C@@H](O)[C@H](O)[C@H]3O)[C@@H]2[C@@]2(CO)O[C@@H]12)c1ccc(O)cc1 [CATALPOSIDE] | – | inhibition [3]: Dose-dependent effect

Structure (SMILES) | pKd [1] | Kd [1] | also measured
O=C(/C=C\c1ccc(O)cc1)O[C@@H]1C[C@@](O)(CO)[C@H]2[C@H](O[C@@H]3O[C@H](CO)[C@@H](O)[C@H](O)[C@H]3O)OC=C[C@H]21 | 7.14 | – | –
